The results in this text go back to patent US11903386B2, “Strigolactone analogs and their usage in plant control” (King Abdullah University of Science and Technology, priority 2016, dated 2024).

For one test, the system named is rice d10 mutant. Description: Rice micro tillering bioassay, d10 mutant. It counts as in vivo. To be noted: comparison between compounds. How it is done: Rice seeds (WT, d3, d10) were surface-sterilized by washing with 70% ethanol for 1 min and then with 2.5% sodium hypochlorite for 15 min. Seeds were then rinsed thoroughly with sterile MilliQ water and incubated in water for 2 days at 30° C. in the dark. Pre-germinated seeds were transferred to filter papers containing ½ strength MS medium in 90 mm petri dishes and incubated at 30° C. under fluorescent white light (130-180 μM m^−2 s^−1) for one week. Seven day-old seedlings were transferred to 50 ml falcon tubes (one seedling per tube) containing modified half-strength Hoagland nutrient solution and grown in greenhouse. Plants were treated with MPs at 2.5 μM-2.5×10-7 μM, using GR24 as positive control. The compounds were applied six times, twice a week. Number of tillers per plant, plant height and fresh biomass were measured at final harvest.
Statistical analyses were carried out using statistical software package R (version 3.2.2). Dose-response curves and Half Maximum Effective Concentrations (EC50) were calculated to determine optimum amount of MPs. Synthetic strigolactone analog GR24 was used as reference to estimate efficacy of selected compounds. EC50 and estimated response were calculated using drc package (https://cran.r390 project.org/web/packages/drc/) with a Four Parameter Logistic Curve (Dose Response Curve) (Ritz and Streibig, 2005).

The target in a further test is T1, ShHTL7 (Striga hermonthica, UniProt A0A0M3PNA2).
T1 sequence (A0A0M3PNA2 1-271): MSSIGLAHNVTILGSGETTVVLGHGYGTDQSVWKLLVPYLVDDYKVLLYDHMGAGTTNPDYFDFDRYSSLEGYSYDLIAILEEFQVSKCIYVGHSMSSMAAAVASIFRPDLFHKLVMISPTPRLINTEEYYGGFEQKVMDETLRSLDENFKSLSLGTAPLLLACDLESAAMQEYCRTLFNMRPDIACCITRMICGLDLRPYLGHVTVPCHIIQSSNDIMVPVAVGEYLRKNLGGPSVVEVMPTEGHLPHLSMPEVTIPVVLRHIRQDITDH
Description: Intrinsic tryptophan fluorescence assay. The format is binding. Particulars: ShHTL7 10 μM, mean±SE (n=3); read-out: Kd, affinity of ShHTL7. The text has this:
(§1) Striga hermonthica ShHTL7 cDNA, GenBank accession KR013127 was kindly provided by Prof. Tadao Asami (The University of Tokyo, Japan). Arabidopsis thaliana D14 (AtD14) cDNA, GenBank accession AY097402 was synthesized and cloned into pUC57 (GenScript). ShHTL7 and OsD14 cDNAs were amplified by RT-PCR using the primers shown in Table 2, digested with BamHI and XhoI, and ligated into BamHI/XhoI digested pGEX-6P-1 expression vector (GE Healthcare). Integrity of plasmids was confirmed by sequencing (KAUST Bioscience Core Lab). The plasmids were then transformed into E. coli BL21 (DE3) cells. The cells were grown in LB broth containing ampicillin ([…]), incubated at 37° C. until OD600 of 0.6 and induced with 0.1 mM isopropyl-β-D-thiogalactopyranoside (IPTG) at 16° C. for 16 h. Harvested cells were re-suspended in lysis buffer: 50 mM Tris-HCl (pH 8.0), 200 mM NaCl, 0.5% Tween-20 and 2 mM dithiothreitol (DTT). After sonication on ice for 10 mins, the lysate was centrifuged at 25,000 rpm for 30 min at 4° C. Supernatant was allowed to bind to glutathione-sepharose beads (GE Healthcare) for 2 h at 4° C., washed 3 times with buffer (50 mM Tris-HCl (pH 8.0), 200 mM NaCl, 2 mM DTT), and eluted by cleaving GST moiety with PreScission™ Protease (GE Healthcare) at 4° C. overnight. Eluted protein was further purified by gel filtration using HiLoad 16/60 Superdex200 prep grade column (GE Healthcare) on an AKTA prime system (GE Healthcare) in gel filtration buffer (10 mM HEPES pH 7.5, 50 mM KCl and 2 mM DTT). Protein eluted as a sharp single peak and purity was judged by 4-15% SDS-PAGE (Bio-Rad). Purified protein was concentrated using an Amicon 10K filter unit (Merck Millipore) and stored at −80° C. until use. Similar expression and purification protocol was followed for OsD14 protein, except that OsD14 was eluted from Glutathione resins using 0.2 mM reduced Glutathione (Sigma) without cutting GST tag.
ShHTL7 tryptophans were excited at 280 nm and […] emission intensity was measured at 333 nm. ShHTL7 (10 μM) was incubated at various dilutions (0.2, 0.4, 0.8, 1.6, 3.12, 6.25, 12.5, 25 and 50 μM) of GR24 and MPs for 30 minutes at room temperature before measurement. Each concentration point was measured in triplicates. Emitted fluorescence was monitored using spectraMaxi3 (Molecular Devices) plate reader in 96-wells black plates. Changes in tryptophan fluorescence intensity occur due to conformational changes in protein when it is bound to ligand; differences in fluorescence intensity were recorded and analyzed. Data were normalized and dissociation coefficient (Kd) values were calculated by fitting to a binding saturation single-site model with GraphPad (PRISM 6).

A further test has as its target T2, OsD14 (Oryza sativa subsp. japonica, UniProt Q10QA5).
T2 construct: made in house; host or cells: E. coli BL21 (DE3)
T2 sequence (Q10QA5 1-318): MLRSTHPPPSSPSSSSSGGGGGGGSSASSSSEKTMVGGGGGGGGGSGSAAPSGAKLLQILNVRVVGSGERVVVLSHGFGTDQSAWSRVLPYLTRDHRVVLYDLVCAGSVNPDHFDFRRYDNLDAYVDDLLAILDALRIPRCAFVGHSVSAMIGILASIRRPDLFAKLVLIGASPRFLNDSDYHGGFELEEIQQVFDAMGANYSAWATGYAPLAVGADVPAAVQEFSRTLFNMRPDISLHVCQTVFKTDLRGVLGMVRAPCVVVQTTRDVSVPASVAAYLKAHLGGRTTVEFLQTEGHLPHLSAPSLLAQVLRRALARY
Description: YLG (Yoshimulactone Green) competitive hydrolysis assay. The format is biochemical, rice.
Text: as §1
In vitro YLG hydrolysis assays were performed as described by Tsuchiya et al., 2015. Hydrolysis assays were carried out using 0.15 μM of recombinant protein OsD14 in a reaction buffer (100 mM PBS buffer, pH 7.3) with 0.1% dimethylsulfoxide (DMSO) at a 300 μl volume on a 96-well black plate (Thermo). For competitive assays, (±) GR24 and (±) MPs at range between 0.03 to 10 μM (or 100 μM) were co-incubated with 0.3 μM of YLG and reacted at 30° C. incubator for 15 min. Fluorescent intensity was measured with excitation at 485 nm and detected at 535 nm. IC50 values were calculated online (http://www.ic50.tk/index.html). Later, values were converted to the existing conditions when treated by 1.0 μM of recombinant proteins.

“Also recorded” adds a separate entry of the source. Where two headings read alike, the source gives them in different places.

Regarding `COC(=O)/C(=C/OC1C=C(C)C(=O)O1)c1ccc([N+](=O)[O-])cc1` (racemic) [MP1, (E)-methyl 3-(4-methyl-5-oxo-2,5-dihydrofuran-2-yloxy)-2-(4-nitrophenyl)acrylate], in the test with rice d10 mutant, the “Relative activity in inhibiting rice tillering (d10)” value is reported as “weaker than GR24”. In addition, the Kd at ShHTL7 is 0.72 ± 0.55 µM. The IC50 on OsD14 (with SE (n=3), read-out: IC50, competitive inhibition of OsD14 mediated YLG hydrolysis) was 2.41 ± 0.175 µM.
Take `COC(=O)/C(=C/OC1C=C(C)C(=O)O1)c1ccccc1` (racemic) [MP3, (E)-methyl 3-(4-methyl-5-oxo-2,5-dihydrofuran-2-yloxy)-2-phenylacrylate]: the “Relative activity in inhibiting rice tillering (d10)” value in the test with rice d10 mutant is reported as “the most active compound; also recorded: most pronounced inhibitory effect on tillering”. Further, the Kd at ShHTL7 came out at 10.1 ± 5.1 µM. The compound further yielded an IC50 on OsD14 of 10.1 ± 2.94 µM.
In the same order, the values of `COC(=O)/C(=C/OC1C=C(C)C(=O)O1)c1ccc(Cl)cc1` (stereo not drawn) [MP7] are “more active than GR24”, 1.15 ± 0.31 µM and 4.46 ± 0.8 µM.
